Results from patent US11932633B2, “KRas G12C inhibitors” (Mirati Therapeutics, Inc., priority 2018, dated 2024).

How the values were obtained:
KRas G12C [1] = target: T1, KRas G12C (Homo sapiens, UniProt P01116, C118S/C51S/C80L/G12C); assay: KRas G12C Modification Assay (LCMS detection of covalent adduct); type: binding; settings: 5 μM concentration for 3 hours
T1 construct: GDP-loaded K-Ras (1-169) G12C, C51S, C80L, C118S
Description: This Example illustrates that exemplary compounds of the present invention covalently bind to KRas G12C using a LCMS assay to detect a covalent adduct of the exemplary compound and KRAS G12C.
The protein concentration of GDP-loaded K-Ras (1-169) G12C, C51S, C80L, C118S and GTP-loaded K-Ras (1-169) G12C, C51S, C80L, C118S, Q61H was adjusted to 2 μM in K-Ras Assay Buffer (25 mM HEPES, 150 mM NaCl, 5 mM MgCl2, and 10 mM Octyl β-glucopyranoside at pH 7.5). A 10 μL aliquot of each protein solution was transferred to a 384 well microtiter plate. Initial compound stocks were generated at fifty times their desired final assay concentration in DMSO.
Exemplary compounds of formula (I) were diluted 25-fold into K-Ras Assay Buffer to a final of two times their final concentration. A 10 μL aliquot of each diluted compound solution was added to each of the protein solutions in the microtiter plate to initiate reaction. Typical final compound concentrations were 3.0, 5.0 and 25.0 μM. At each time point, the reactions were quenched with 20 μL of a 25 mM acetic acid solution. Usual assay endpoints were 15, 180 and 1440 minutes. Once all reactions were quenched, the plates were heat sealed and the samples were injected into a LC/MS system for data acquisition.
Data collection took place on an Agilent 6520 Q-TOF Accurate Mass Spectrometer. Samples were injected in their liquid phase onto a C-3 reverse phase column to remove assay buffer and prepare the samples for mass spectrometer. The proteins were eluted from the column using an acetonitrile gradient and fed directly into the mass analyzer. Initial raw data analysis took place in Agilent MassHunter software immediately post data acquisition.
Raw data analysis of the intact protein was exclusively a deconvolution of the multiple charge states of each protein in solution using a maximum entropy deconvolution provided in Mass Hunter. To minimize complexity, only the data over limited mass ranges were considered for analysis, with a minimum of one Dalton mass step intervals. The heights of all masses identified during raw data analysis were exported to be further analyzed in Spotfire® data analysis software.
Final data analysis was a multistep process in the Spotfire® data analysis software package. Briefly, each protein mass was calculated as a percent of the total signal of that sample, that percentage was normalized to the percentage of signal of the protein in the absence of reactive compounds. Those normalized signals were reported as normalized percent of control (POC). […] Key: N.D. is not determined.

KRas G12C [2] = target: T2, KRas G12C (Homo sapiens, UniProt P01116, G12C); assay: Cellular inhibition of KRas G12C measured by Phospho-ERK in NCI-11358 cells; type: cell-based; settings: NCI-11358 cells (ATCC CRL-5807), 3 hours; read-out: Inhibition (IC50, pERK (Thr202/Tyr204) signal normalized with GAPDH)
T2 construct: NCI-11358 cells (ATCC CRL-5807) express KRas G12C; host or cells: NCI-H358
Description: The cellular inhibition of KRAs G12C by exemplary compounds of the present invention was determined by measuring the amount of a downstream marker of KRas activity, phosphorylated ERK (“Phospho-ERK”).
NCI-11358 cells (ATCC CRL-5807) express KRas G12C and were grown in RPMI medium supplemented with 10% fetal bovine serum, penicillin/streptomycin and 10 mM HEPES. Cells were plated in poly-D-Lysine coated 96-well plates at a concentration of 50,000 cells/well and allowed to attach for 8-12 hours. Diluted compounds were then added at a final concentration of 0.5% DMSO. After 3 hours, the medium was removed, 150 μL of 4% formaldehyde was added and the plates were incubated for 20 minutes. The plates were washed with PBS, and permeabilized using 150 μL of ice cold 100% methanol for 10 minutes. Non-specific antibody binding to the plates was blocked using 100 μL Licor Blocking Buffer (Li-Cor Biotechnology, Lincoln NE) for 1 hour at room temperature. Positive control samples and samples lacking cells were parallel processed with test samples as standards.
The amount Phospho-ERK was determined using an antibody specific for the phosphorylated form of ERK and compared to the amount of GAPDH. Primary antibodies used for detection were added as follows: Phospho-ERK (Cell Signaling cs9101) diluted 1:500 and GAPDH (Millipore MAB374) diluted 1:5000 in Licor block+0.05% Tween 20. The plates were incubated for 2 hours at room temperature. The plates were washed with PBS+0.05% Tween 20.
Secondary antibodies used to visualize primary antibodies were added as follows: Anti-rabbit-680 diluted 1:1000 and Anti-mouse-800 diluted 1:1000 in Licor Block+0.05% Tween 20 and incubated for 1 hour at room temperature. The plates were washed with PBS+0.05% Tween 20. A 100 μL aliquot of PBS was added to each well and the plates were read on a LICOR AERIUS plate reader.
The pERK (Thr202/Tyr204) signal was normalized with the GAPDH signal and percent of DMSO control values were calculated. IC50 values were generated using a 4 parameter fit of the dose response curve. Key: “A”: ≤1 μM, “B”>1 μM and N.D.=not determined.

Q: How did the “POC (normalized percent of control, covalent modification of KRas G12C)” value (KRas G12C [1]) turn out when `C=CC(=O)N1CC(CN2C(=O)[C@H](CCN3CCOCC3)Oc3cc(-c4cc(O)cc5ccccc45)c(Cl)cc32)C1` [Example 34, (S)-4-((1-acryloylazetidin-3-yl)methyl)-6-chloro-7-(3-hydroxynaphthalen-1-yl)-2-(2-morpholinoethyl)-2H-benzo[b][1,4]oxazin-3(4H)-one] was run?
A: 93% of control

Q: And the IC50 (KRas G12C [2])?
A: ≤ 1000 nM

Q: How did the “POC (normalized percent of control, covalent modification of KRas G12C)” value (KRas G12C [1]) turn out when `C=CC(=O)N1CC(CN2C(=O)COc3cc(-c4ccccc4C(F)(F)F)c(Cl)cc32)C1` [Example 37, 4-((1-acryloylazetidin-3-yl)methyl)-6-chloro-7-(2-(trifluoromethyl)phenyl)-2H-benzo[b][1,4]oxazin-3(4H)-one] was run?
A: 66% of control

Q: And the IC50 (KRas G12C [2])?
A: > 1000 nM

Q: `C=CC(=O)N1CC(CN2C(=O)COc3cc(-c4[nH]nc(C)c4C)c(Cl)cc32)C1` [Example 38, 6-chloro-7-(3,4-dimethyl-1H-pyrazol-5-yl)-4-[(1-prop-2-enoylazetidin-3-yl)methyl]-1,4-benzoxazin-3-one] was tested. Which “POC (normalized percent of control, covalent modification of KRas G12C)” value (KRas G12C [1]) did it give?
A: 72% of control

Q: And the IC50 (KRas G12C [2])?
A: > 1000 nM
